The values that follow come from patent US5084462A, “4-quinoline carboxylic acid derivatives useful as immunosuppressive agents” (The Du Pont Merck Pharmaceutical Company, priority 1990, dated 1992).

Structures are written as SMILES. Where two headings read alike, the source gives them in different places.

Assay [1] deals with contact sensitivity response to 2,4-dinitrofluorobenzene (DNFB). Put plainly: Contact sensitivity response to 2,4-dinitrofluorobenzene (DNFB) in mice. It counts as in vivo, Balb/c female mice. The settings on record: for inhibition in vivo at 1 mg/kg: 1.0 mg/kg oral. How it is done:
This is an antigen-specific T-cell mediated inflammatory response that represents delayed-type hypersensitivity reactions seen in both humans and other mammals.
Balb/c female mice (.perspectiveto.20g, Charles River) were sensitized on the shaved abdomen with 25 μl of 0.5% 2,4-dinitrofluorobenzene ([…], Eastman Kodak Co.) in a vehicle of 4:1 acetone:olive oil on days 0 and 1. Mice were ear challenged with 20 μl of 0.2% DNFB in a vehicle of 4:1 acetone:olive oil on day 5. A constant area of the ears was measured immediately before challenge and 24 hours later with an engineer's micrometer. Ear swelling was expressed as the difference in ear thickness before and after challenge in units of 10^-4 inches±SEM. Percent suppression was calculated as: [formula] […] Negative controls were not sensitized on days 0 and 1 but were ear challenged on day 5. Ten mice were used per group.

Assay [2] relates to human mixed lymphocyte reaction. The assay is described as follows: Human mixed lymphocyte reaction (3H-thymidine incorporation). The format is cell-based. The conditions noted are these: Table 4, human PBMC of two donors, 6 days. The text has this: Contact sensitivity to DNFB has teen extensively studied and characterized in the mouse to determine the regulatory mechanisms involved in cell mediated immune responses (Claman, et al., Immunol Rev 50:105, 1980). This is an antigen-specific T-cell mediated inflammatory response that represents delayed-type hypersensitivity reactions seen in both humans and other mammals. The primary use of the human mixed lymphocyte reaction is for the determination of transplantation compatibility between the donor (graft) and the recipient (Park and Good, p. 71. In Yunis, et al., Tissue typing and organ transplantation. 1973 Academic Press Inc., N.Y.).
Blood was obtained by venipuncture from two nonrelated human donors. Peripheral blood mononuclear cells (PBMC) were isolated from these samples by using the Leuco Prep procedure (Becton-Dickinson). PBMC were washed twice in phosphate buffered saline (without calcium and magnesium) and the separate cell isolations were adjusted to the appropriate concentrations in media (RPMI 1640) supplemented with 10% human AB serum and […] gentamicin. Cells from donor A (2×10^5) were incubated with cells from donor B (2×10^5) in 96 well round bottom microliter plates at 37° C., 5% CO2 for 6 days. Eighteen hours prior to harvesting cells from the plates, all wells were pulsed with 1 μCi of ^3 H-thymidine. Cells from the plates were harvested on day 6 and ^3 H-thymidine incorporation was determined using a scintillation counter.
For orientation: Dividing cells build labelled thymidine or BrdU into new DNA.

Assay [3] deals with adjuvant-induced arthritis. Put plainly: Adjuvant-induced arthritis in rats. The settings on record: for Non-Injected Hind-Paw Volume / % Suppression: day 18; for % Suppression: Table 5, non-injected hind paw. It counts as in vivo, Male Lewis rats. How it is done:
Rat adjuvant-induced arthritis represents a systemic inflammatory disease with bone and cartilage changes similar to that observed in rheumatoid arthritis, but in an accelerated time span (Pearson, Arth Rheum 7:80, 1964).
Male Lewis rats (Charles River) weighing 160-210 grams were injected subcutaneously with 0.1 ml of Freund's Complete Adjuvant containing 5 mg of M. butyricum/ml of paraffin oil (Difco Laboratories) into the plantar region of the right hind paw. Paraffin oil was injected for non-arthritic controls. Ten rats were used per group. Compounds were prepared in 0.25% Methocel® (Dow Chemical Co) with one drop of Tween® 80 per 10 ml of Methocel®. Animals were dosed every day beginning on the day of paw injection until day 18. The weight of each animal was recorded every other day beginning on the day of the paw injections. On day 18 the animals were weighed, and the non-injected hind paw volume was measured using a Ugo Basile Volume Differential Plethysmometer.

Where [4] appears, read: Mus musculus, po, 24 h, Table 2, ear swelling, 10.0 mg/kg oral, read-out: % Suppression.
Setting [5] is: Mus musculus, Table 2, suppression of ear swelling, oral, days -2 through 6, read-out: ED50.
Setting [6] is: Mus musculus, po, 24 h, Table 3, ear swelling, 20.0 mg/kg oral, read-out: % Suppression.

As a reminder, the ED50 is the midpoint of the dose-response relation. Regarding `C[C@@H]1C[C@H]2[C@@H]3CCC4=CC(=O)C=C[C@]4(C)[C@@]3(F)[C@@H](O)C[C@]2(C)[C@@]1(O)C(=O)CO` [Dexamethasone, reference compound], the inhibition in vivo at 0.2 mg/kg in assay [1] (Mus musculus, po, 24 h, Table 2, ear swelling, 0.2 mg/kg oral, read-out: % Suppression) turned out to be 28.8%. Besides, the inhibition in vivo at 1 mg/kg in assay [1] (Mus musculus, po, 24 h, Table 2, ear swelling, read-out: % Suppression) was found to be 44.3%; in assay [1] (Mus musculus, po, 24 h, Table 3, ear swelling, read-out: % Suppression) it was 43.8%. Further, the inhibition in vivo at 5 mg/kg in assay [1] (Mus musculus, po, 24 h, Table 2, ear swelling, 5.0 mg/kg oral, read-out: % Suppression) was 68.6%. In assay [1] (setting [4]), the inhibition in vivo at 10 mg/kg amounted to 79.9%. In addition, in assay [1] (setting [5]), the ED50 is 1.5 mg/kg. Moreover, the “Ear Swelling (units ± SEM), increase in ear thickness from day 5 to day 6” value (“Ear Swelling (units ± SEM), increase” below) is 52.95 ± 3.39 10^-4 inches in assay [1] (Table 2, 0.2 mg/kg oral); 41.60 ± 2.46 10^-4 inches in assay [1] (Table 2, 1.0 mg/kg oral); 23.79 ± 2.71 10^-4 inches in assay [1] (Table 2, 5.0 mg/kg oral); 15.50 ± 2.10 10^-4 inches in assay [1] (Table 2, 10.0 mg/kg oral); 42.20 ± 2.61 10^-4 inches in assay [1] (Table 3, 1.0 mg/kg oral).

As a reminder, the IC50 is the midpoint of a concentration-inhibition curve. Low readings indicate greater potency, high ones weaker potency. On to `Cc1c(-c2ccc(-c3ccccc3)cc2)nc2cccc(Cl)c2c1C(=O)[O-].[Na+]` [Example 1, Sodium 2-(1,1'-Biphenyl-4-yl)-5-chloro-3-methyl-quinoline-4-carboxylate], for which the ED50 in assay [1] (Mus musculus, po) is 3.5 mg/kg; in assay [3] (Rattus norvegicus, 432 h, Table 5 footnote, adjuvant-induced arthritis), 21 mg/kg. For the same compound, in assay [1] (Mus musculus, po, 24 h, read-out: % Suppression, Table 2, ear swelling, 0.4 mg/kg oral), the inhibition in vivo at 0.4 mg/kg was 11%. The inhibition in vivo at 2 mg/kg in assay [1] (Mus musculus, po, 24 h, read-out: % Suppression, Table 2, ear swelling, 2.0 mg/kg oral) is 23.4%. Also, the inhibition in vivo at 10 mg/kg in assay [1] (Mus musculus, po, 24 h, read-out: % Suppression, Table 2, ear swelling, 10.0 mg/kg oral) is 92.7%. Further, the inhibition in vivo at 20 mg/kg in assay [1] (Mus musculus, po, 24 h, read-out: % Suppression, Table 2, ear swelling, 20.0 mg/kg oral) was 93.9%. The “Ear Swelling (units ± SEM), increase” value in assay [1] (Table 2, 0.4 mg/kg oral) is 66.05 ± 4.32 10^-4 inches; in assay [1] (Table 2, 2.0 mg/kg oral), 56.94 ± 4.80 10^-4 inches; in assay [1] (Table 2, 10.0 mg/kg oral), 6.10 ± 0.75 10^-4 inches; in assay [1] (Table 2, 20.0 mg/kg oral) it was 5.20 ± 1.17 10^-4 inches. In assay [2], this compound displayed an IC50 of 9.6 nM. The “Weight Gain” value in assay [3] (Table 5, 10 mg/kg daily to day 18) is -14.0 ± 4.2 g; in assay [3] (Table 5, 17.5 mg/kg daily to day 18), 2.8 ± 5.3 g; in assay [3] (Table 5, 25.0 mg/kg daily to day 18) it was 20.6 ± 6.3 g. Besides, the “Non-Injected Hind-Paw Volume” value stood at 1.87 ± 0.08 mL in assay [3] (Table 5, 10 mg/kg daily); 1.72 ± 0.08 mL in assay [3] (Table 5, 17.5 mg/kg daily); 1.34 ± 0.10 mL in assay [3] (Table 5, 25.0 mg/kg daily). The “% Suppression” value in assay [3] (10 mg/kg daily) is recorded as 1.4%; in assay [3] (17.5 mg/kg daily), 20.8%; in assay [3] (25.0 mg/kg daily) it was 70.6%.

Regarding `Cc1c(-c2ccc(Oc3ccccc3)cc2)nc2ccc(F)cc2c1C(=O)O` [Example 3], in assay [1] (setting [6]), the inhibition in vivo at 20 mg/kg is 83.5%. In addition, in assay [1] (Table 3, 20.0 mg/kg oral), the “Ear Swelling (units ± SEM), increase” value was 14.25 ± 1.49 10^-4 inches.

`Cc1c(-c2ccc(-c3ccc(Br)cc3)cc2)nc2ccc(F)cc2c1C(=O)O` [Example 4]: the inhibition in vivo at 20 mg/kg in assay [1] (setting [6]) worked out at 87%. Also, the “Ear Swelling (units ± SEM), increase” value in assay [1] (Table 3, 20.0 mg/kg oral) is on record as 11.80 ± 1.03 10^-4 inches.

`Cc1ccc2nc(-c3ccc(-c4ccccc4)cc3)c(C)c(C(=O)O)c2c1` [Example 5]: the inhibition in vivo at 20 mg/kg in assay [1] (setting [6]) was 53.4%. Further, the “Ear Swelling (units ± SEM), increase” value in assay [1] (Table 3, 20.0 mg/kg oral) was 35.47 ± 2.31 10^-4 inches.

As to `Cc1c(-c2ccc(SC(C)C)cc2)nc2ccc(F)cc2c1C(=O)O` [Example 6], in assay [1] (setting [6]), the inhibition in vivo at 20 mg/kg stood at 21.1%. In assay [1] (Table 3, 20.0 mg/kg oral), the “Ear Swelling (units ± SEM), increase” value is reported as 58.20 ± 4.63 10^-4 inches.

On to `Cc1c(-c2ccc(Sc3ccccc3)cc2)nc2ccc(Cl)cc2c1C(=O)O` [Example 7], for which the inhibition in vivo at 20 mg/kg in assay [1] (setting [6]) worked out at 14.4%. Besides, in assay [1] (Table 3, 20.0 mg/kg oral), the “Ear Swelling (units ± SEM), increase” value is recorded as 62.95 ± 3.40 10^-4 inches.

For the compound `Cc1c(-c2ccc(Sc3ccccc3)cc2)nc2ccc(Cl)cc2c1C(=O)O` [Example 8], the “Ear Swelling (units ± SEM), increase” value in assay [1] (Table 3, 20.0 mg/kg oral) is 63.25 ± 3.58 10^-4 inches. For the same compound, in assay [1] (Table 3, ear swelling, 20.0 mg/kg oral, 20 mg/kg), the “% Suppression” value was found to be 13.98%.

As to `O=C(O)c1cc(-c2ccc(-c3ccccc3)cc2)nc2ccc(F)cc12` [Example 9], the inhibition in vivo at 20 mg/kg in assay [1] (setting [6]) is 43.3%. In addition, in assay [1] (Table 3, 20.0 mg/kg oral), the “Ear Swelling (units ± SEM), increase” value is 42.60 ± 2.68 10^-4 inches.

Regarding `Cc1c(-c2ccc([S+]([O-])c3ccccc3)cc2)nc2ccc(F)cc2c1C(=O)O` (stereo not shown) [Example 10], the inhibition in vivo at 20 mg/kg in assay [1] (setting [6]) was 22.4%. In addition, the “Ear Swelling (units ± SEM), increase” value in assay [1] (Table 3, 20.0 mg/kg oral) is 57.28 ± 2.36 10^-4 inches.

For the compound `COc1c(-c2ccc(-c3ccccc3)cc2)nc2ccc(F)cc2c1C(=O)O` [Example 11], the inhibition in vivo at 20 mg/kg in assay [1] (setting [6]) was found to be 74.1%. In addition, the “Ear Swelling (units ± SEM), increase” value in assay [1] (Table 3, 20.0 mg/kg oral) was 20.85 ± 2.53 10^-4 inches.

With `Cc1c(-c2ccc(-c3ccc(O)cc3)cc2)nc2ccc(Cl)cc2c1C(=O)O` [Example 12], the inhibition in vivo at 20 mg/kg in assay [1] (setting [6]) is 26.3%. Further, the “Ear Swelling (units ± SEM), increase” value in assay [1] (Table 3, 20.0 mg/kg oral) is given as 54.58 ± 3.21 10^-4 inches.

Regarding `COc1ccc2c(c1)c(CC(=O)O)c(C)n2C(=O)c1ccc(Cl)cc1` [Indomethacin, reference compound], the IC50 in assay [2] was over 1000 nM.

As to `CN(Cc1cnc2nc(N)nc(N)c2n1)c1ccc(C(=O)N[C@@H](CCC(=O)O)C(=O)O)cc1` [Methotrexate, reference compound], in assay [1] (Mus musculus, po, 24 h, Table 2, ear swelling, 0.4 mg/kg oral, read-out: % Suppression), the inhibition in vivo at 0.4 mg/kg came out at 3.83%. The inhibition in vivo at 2 mg/kg in assay [1] (Mus musculus, po, 24 h, Table 2, ear swelling, 2.0 mg/kg oral, read-out: % Suppression) amounted to 18.1%. Also, the inhibition in vivo at 10 mg/kg in assay [1] (setting [4]) amounted to 51.8%. For the same compound, the inhibition in vivo at 20 mg/kg in assay [1] (Mus musculus, po, 24 h, Table 2, ear swelling, 20.0 mg/kg oral, read-out: % Suppression) was found to be 63.6%; in assay [1] (setting [6]), 79.7%. For the same compound, the ED50 in assay [1] (setting [5]) stood at 9 mg/kg. Besides, the “Ear Swelling (units ± SEM), increase” value is 71.30 ± 2.96 10^-4 inches in assay [1] (Table 2, 0.4 mg/kg oral); 60.80 ± 1.99 10^-4 inches in assay [1] (Table 2, 2.0 mg/kg oral); 36.10 ± 3.23 10^-4 inches in assay [1] (Table 2, 10.0 mg/kg oral); 27.45 ± 4.99 10^-4 inches in assay [1] (Table 2, 20.0 mg/kg oral); 16.94 ± 2.10 10^-4 inches in assay [1] (Table 3, 20.0 mg/kg oral). This compound returned an IC50 in assay [2] of 2.5 nM.
